Experimental data reported in US20260335282A1, “NOVEL 3-ARYLIDENE-2-INDOLINONE DERIVATIVES FOR THERAPEUTIC USE” (ISTANBUL UNIVERSITESI REKTORLUGU, priority 2022, published 2026).
“Also recorded” adds a separate entry of the source.

Tests used:
Type in all cases: cell-based, human
MIAPaCa-2 cells [1] = assay: MTT cytotoxicity, pancreas cancer cells MIAPaCa-2; conditions: for selectivity index: MCF-10F/Beas2b vs MIAPaCa-2; for IC50: MTT, no * mark (incubation time not specified)
Text: (§1) The cytotoxicity, general tyrosine kinase inhibitory effects and cell death (apoptosis/necrosis) assays of 1-benzyl-3-(1H-indol-3-ylmethylidene)-1,3-dihydro-2H-indol-2-one derivatives (Formula 5) of the present invention are studied by the following methods. […] HUVEC (human umbilical vein endothelial cell), MCF-10F (human breast epithelial cell) and Beas2b (human lung bronchial epithelial cell) cell lines have been used as healthy control cells in MTT experiments.
(§2) Beas2b (human lung bronchiole epithelial cell) and HEK293 (renal tubule epithelium) cells used as normal cell lines were cultured in RPMI medium, and HUVEC (human umbilical cord endothelial cells) and MCF-10F (human breast epithelial cell) cells are cultured in DMEM medium containing 100 µg/ml penicillin/streptomycin. The cells, which covered 70% of the culture flask, are washed with phosphate buffer and then removed from the surface of the flask by application of trypsin-ethylenediamine tetraacetic acid (Trypsin-EDTA; 0.25%) solution, passaged, counted and seeded on appropriate plates before each experiment. Cells are treated with a total of 45 2-indolinone compounds (5) at concentrations of 0.1, 1, 5 and 10 μM. Stock compounds are prepared in 1 ml dimethylsulfoxide (DMSO) and 4 different dilutions were prepared with medium and performed to the cells. Control group cells are treated with DMSO at a similar concentration to the experimental groups.
(§3) MTT (3-(4,5-dimethylthiazol-2-yl)-2,5-diphenyl-2H-tetrazolium bromide) colorimetric assay provides quantitation of viable cells with ongoing mitochondrial activity in culture medium. According to the standard procedure in cell culture conditions, cells are maintained in RPMI-1640 and DMEM culture media containing 10% FBS and 1% penicillin/streptomycin. The trypan blue test is used for cell counts.
(§4) The effects of 45 2-indolinone compounds (5) on cell viability in all cancer cell lines are investigated by MTT assay. Cells are seeded in a 96-well flat bottom plate with 5000 cells in each well and 2-indolinone compounds (5) at concentrations of 0.1, 1, 5 and 10 μM are performed to the cells the next day. After 48 and/or 72 hours following treatment with 2-indolinone compounds, 50 μl of the supernatant is slowly discarded (as it was acid medium) and MTT at a concentration of 5 mg/ml is added to each well in a volume of 10 μl. After incubation for 4 hours, the formazan crystals formed in the wells are dissolved by adding 100 μl DMSO and the optical density is read at 570 nm test wavelength and 630 nm reference wavelength. Cell viability is expressed as % cell viability by comparing the absorbance of control and test wells. IC50 value is calculated from the dose-response curves prepared for each compound. In addition, the possible DMSO effect is eliminated by preparing negative control wells compatible with the amount of DMSO contained in the compounds. To understand the reaction of the compounds with MTT, cell-free (MTT+compounds) negative controls are prepared at the concentrations used (Mosmann, 1983). […] The absorbance values obtained are compared to the control and statistically evaluated by unpaired t-test using “Graphpad Prism 5.04” software. “P<0.05” is accepted as significant. When evaluating cytotoxic effects, the present inventors aim for the inventive compounds to be effective in cancer cells and ineffective in healthy cells. The inventive compounds have also been compared with sunitinib, one of the reference chemotherapy drugs currently used in treatment.

MCF-7 cells = assay: MTT cytotoxicity, breast cancer cells MCF-7; conditions: MTT, no * mark (incubation time not specified)
Text: as §1, §2, §3, §4
(§5) Among the compounds of the present invention, those that killed cancer cells by at least 50% (p<0.05) are selected and tested whether a 10-fold concentration of the M concentration at the IC50 value is toxic to normal healthy cells.

HCT-116 cells = assay: MTT cytotoxicity, colon cancer cells HCT-116; conditions: no * mark (incubation time not specified)
Text: as §1, §2, §3, §4

A549 cells = assay: MTT cytotoxicity, lung cancer cells A549; conditions: no * mark (incubation time not specified)
Text: as §1, §2, §3, §4, §5

MCF-10F/Beas2b cells = assay: MTT cytotoxicity, healthy cells MCF-10F/Beas2b; conditions: for Selectivite Index, MCF-10F/Beas2b (Table 2): MCF-10F/Beas2b vs colon or pancreas cancer cells, cancer line not given
Text: as §1, §2, §3, §4, §5

[2] = tested on: general tyrosine kinase activity in MIA PaCa-2 pancreas cancer cells; assay: General tyrosine kinase activity (ELISA) in MIAPaCa-2 cells; conditions: 72 hours, IC50 concentration
Experimental: Takara Universal Tyrosine Kinase Assay Kit is used to determine the effects of 11 2-indolinone compounds (Y1, Y2, Y3, Y4, Y5, Y8, […], […], Y21, Y23, 20C, 22C) on general tyrosine kinase activity in cancer cells. Cells are seeded in 6-well plates (4.10^5 cells/well) and the IC50 concentration of each selected molecule is performed to the cells for 48 or 72 hours. Cells in the control group are incubated with medium only. At the end of the incubation period, the cells in each well are washed with PBS and cells are removed from the wells using a cell scraper via 1 ml of the extraction buffer in the kit. The cell lysate is transferred to ependorf tubes and centrifuged at 10.000 g for 10 minutes at +4° C. and the supernatant is used as a sample for activity determination. After the extracts obtained from the control and experimental groups are diluted 1:25, 40 μl extracts is transferred to two wells in the 96-well plate in the kit. In addition, the standard solution in the kit is diluted according to the kit instructions and each concentration is transferred 40 μl into three wells. 10 μl of 40 mM ATP-2Na solution is added to all wells and the plate is incubated at 37° C. for 30 minutes. After incubation, all wells are washed 4 times with wash buffer. 100 μl of blocking solution is added to each well and incubated again at 37° C. for 30 minutes. After incubation, the liquid in the wells is discarded and 50 μl of anti-phosphotyrosine-HRP solution is added to each well and incubated at 37° C. for 30 minutes. The wells are washed again four times with wash buffer and 100 μl of HRP-substrate solution (TMBZ) is added to each well and incubated at 37° C. for 15 minutes. The reaction is finished by adding 100 μl of stop solution to each well and the optical density in each well is measured at 405 nm with a microplate reader (BioTek, USA). The tyrosine kinase activity in each sample is calculated from the standard curve obtained from the absorbance values of the standard solutions with the kit (Chan W Y, Lau P M, Yeung K W, Kong S K. The second generation tyrosine kinase inhibitor dasatinib induced eryptosis in human erythrocytes—An in vitro study. Toxicol Lett. 2018; 295:10-21). This activity is normalized compared to the control group by dividing by the amount of protein in each sample.
The effects of 11 2-indolinone compounds (Y1, Y2, Y3, Y4, Y5, Y8, Y14, Y21, Y23, 20C and 22C) having the structure of formula (5), which are prominent with their cytotoxicity in A498, MIAPaCa-2 and HCT-116 cancer cell lines and nontoxic properties in healthy cells, on general tyrosine kinase activity in cancer cells are determined.

MDA-MB-231 cells = assay: MTT cytotoxicity, breast cancer cells MDA-MB-231; conditions: read-out: IC50, MDA-MB-231 (breast); MTT, no * mark (incubation time not given)
Text: as §1, §2, §3, §4, §5

MIAPaCa-2 cells [3] = assay: Apoptosis/necrosis detection, Annexin V/PI flow cytometry, MiaPaca-2; conditions: for necrosis compared to control: MiaPaca-2; for apoptosis (early and late) compared to control: MiaPaca-2, IC50 values
Experimental: (§6) After incubation with 2-indolinone compounds (IC50 μM concentration; 48 and/or 72 hours), cells are washed twice with PBS and the cell pellet is suspended in Annexin V binding buffer. After this incubation, cells are incubated with FITC-conjugated Annexin V and propidium iodine staining solution for 15 minutes in the dark and at room temperature. Then, cells are analyzed by flow cytometry (Beckman coulter, Navios) (Wlodkowic, D., Skommer, J, Darzynkiewicz, Z. 2009. Flow cytometry-based apoptosis detection, Methods Mol Biol., 559, 1-14).

HUVEC cells = assay: MTT cytotoxicity, healthy cells HUVEC; conditions: for Selectivite Index, HUVEC (Table 2): HUVEC vs colon or pancreas cancer cells, cancer line not given; for IC50: MTT, no * mark (incubation time not specified)
Text: as §1, §2, §3, §4, §5

A498 cells = assay: MTT cytotoxicity, kidney cancer cells A498; conditions: MTT, no * mark (incubation time not specified)
Text: as §1, §2, §3, §4, §5

CAKI-1 cells = assay: MTT cytotoxicity, kidney cancer cells CAKI-1; conditions: no * mark (incubation time not specified)
Text: as §1, §2, §3, §4, §5

HT-29 cells = assay: MTT cytotoxicity, colon cancer cells HT-29; conditions: MTT, no * mark (incubation time not specified)
Text: as §1, §2, §3, §4

[4] = tested on: pancreas and kidney cancer cells; assay: Apoptosis detection, Annexin V/PI flow cytometry, pancreas and kidney cancer cells
Experimental: as §6
Whether the 2-indolinone derivatives (5) with the highest selectivity index and general TKI activity stimulated apoptosis and necrosis is determined by Annexin V and propidium iodine staining in pancreas and kidney cancer cells. Annexin V/PI flow cytometry apoptosis values of the tested compounds Y1, Y2, Y3, Y4, Y8 and Y14 are found to be 40% and above in correlation with MTT results. The apoptosis rates of the control groups and the substances are analyzed by t test in GraphPad version 9.0.

Row | Structure (SMILES) | selectivity index (MIAPaCa-2 cells [1]) | IC50 (MIAPaCa-2 cells [1]) | IC50 (MCF-7 cells) | IC50 (HCT-116 cells) | IC50 (A549 cells) | Selectivite Index, MCF-10F/Beas2b (Table 2) (MCF-10F/Beas2b cells) | general tyrosine kinase activity compared to control [2] | IC50 (MDA-MB-231 cells) | necrosis compared to control (MIAPaCa-2 cells [3]) | apoptosis (early and late) compared to control (MIAPaCa-2 cells [3]) | Selectivite Index, HUVEC (Table 2) (HUVEC cells) | IC50 (HUVEC cells) | IC50 (A498 cells) | IC50 (CAKI-1 cells) | IC50 (HT-29 cells) | Annexin V/PI flow cytometry apoptosis values [4] | IC50 (MCF-10F/Beas2b cells; MTT, no * mark (incubation time not specified))
1 | O=C1/C(=C\c2c[nH]c3ccccc23)c2cc(F)ccc2N1Cc1ccccc1 [Y5] | > 37 | 0.27 µM | 4.44 µM | 2.05 µM | 7.81 µM | > 37.04 | significantly decreased; also recorded: decreased the general tyrosine kinase activity | 7.94 µM | did not cause necrosis | increase in apoptosis at IC50 values was statistically significant | 8.04 | 2.17 µM | 4.32 µM | 3.42 µM | 2.98 µM |  | 
2 | Cn1cc(/C=C2\C(=O)N(Cc3ccccc3)c3ccc(OC(F)(F)F)cc32)c2ccccc21 [Y14] |  | 0.15 µM | 6.09 µM | > 10 µM | > 10 µM | 45.06 | significantly decreased; also recorded: decreased the general tyrosine kinase activity | > 10 µM | did not cause necrosis | increase in apoptosis at IC50 values was statistically significant | > 66.66 | > 10 µM | > 10 µM | > 10 µM | > 10 µM | ≥ 40% | 6.76 µM
3 | O=C1/C(=C\c2c[nH]c3ccccc23)c2cc(Cl)ccc2N1Cc1ccccc1 [Y2] | > 21 | 0.48 µM | 4.16 µM | 1.44 µM | 4.04 µM | > 20.83 | significantly decreased; also recorded: decreased the general tyrosine kinase activity | 4.96 µM |  |  | 2.21 | 1.06 µM | 2.36 µM | 4.25 µM | 1.52 µM | ≥ 40% | 
